We go through 4 compounds from patent US8420657B2 (Novartis AG, priority 2008, dated 2013).

One assay addresses T1, GST-JAK2(808-1132) (Homo sapiens, UniProt O60674).
T1 construct: GST-JAK2(808-1132); purchased Invitrogen (Carlsbad, USA) #4288
As to the kind of experiment: JAK2 kinase assay (Caliper mobility shift, LabChip 3000). The class given is biochemical. The gist of the method: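 Eight-point compound series (final 10–0.003 μM) tested on purchased GST-JAK2 kinase domain (808-1132). Peptide FITC-JAK3tide plus ATP reacted 60 min, 30 °C, then quenched with EDTA; turnover from charge-based separation of substrate and product.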

Assay [1] deals with JAK1/JAK2-dependent nuclear translocation of STAT1-GFP in HT1080 fibrosarcoma cells. Nature of the assay: STAT1 nuclear translocation assay (Cellomics), IFN-γ stimulated HT1080 STAT1-GFP cells. Type of assay: cell-based. Particulars: Homo sapiens, HT-1080, STAT1 translocation pathway. The method, boiled down: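 IC50 derived from percent nuclear STAT1-GFP translocation, computed from nuclear minus cytoplasmic GFP intensity against untreated baseline and DMSO-stimulated control. Stable HT1080 STAT1-GFP cells received compound (0.003–10 μM, 0.1% DMSO) 30 min ahead of a 2 h 100 ng/ml IFN-γ stimulus, then fixation and Hoechst nuclear masking.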

T1 sequence (O60674 808-1132): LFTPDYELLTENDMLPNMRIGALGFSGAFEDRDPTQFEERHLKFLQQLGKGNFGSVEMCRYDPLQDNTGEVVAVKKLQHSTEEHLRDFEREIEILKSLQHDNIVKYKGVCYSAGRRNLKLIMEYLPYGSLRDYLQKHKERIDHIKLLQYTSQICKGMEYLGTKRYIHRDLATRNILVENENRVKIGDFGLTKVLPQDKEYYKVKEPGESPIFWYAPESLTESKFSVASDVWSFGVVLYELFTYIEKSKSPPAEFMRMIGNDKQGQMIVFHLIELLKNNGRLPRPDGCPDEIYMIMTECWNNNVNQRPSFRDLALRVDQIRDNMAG

Usually IC50 stands for the concentration needed to halve the response being measured. Take `Cc1ccc(Nc2ncc3ccn(-c4cc(F)c(CN5CCN(C6CC6)CC5)c(F)c4)c3n2)cc1C` [Example 306, {7-[4-(4-Cyclopropyl-piperazin-1-yl methyl)-3,5-difluoro-phenyl]-7H-pyrrolo[2,3-d]pyrimidin-2-yl}-(3,4-dimethyl-phenyl)-amine]: the IC50 came out at 39.5 nM on GST-JAK2(808-1132) and 550 nM in assay [1].

For the compound `COc1ccc(Nc2ncc3ccn(-c4ccc(S(C)(=O)=O)cc4)c3n2)cc1OCCCN(C)C` [Example 27, [3-(3-Dimethylamino-propoxy)-4-methoxy-phenyl]-[7-(4-methanesulfonyl-phenyl)-7H-pyrrolo[2,3-d]pyrimidin-2-yl]-amine], the IC50 was less than 3 nM at GST-JAK2(808-1132) and 85 nM in assay [1].

With `CN1CCN(C(=O)c2ccc(Nc3ncc4ccn(-c5cc(F)c(CN6CCOCC6)c(F)c5)c4n3)cc2)CC1` [Example 2, {4-[7-(3,5-Difluoro-4-morpholin-4-ylmethyl-phenyl)-7H-pyrrolo[2,3-d]pyrimidin-2-ylamino]-phenyl}-(4-methyl-piperazin-1-yl)-methanone], the IC50 on GST-JAK2(808-1132) turned out to be 3.2 nM; in assay [1] it was 190 nM.

As to `Cc1ccc(Nc2ncc3ccn(-c4ccc(CN5CCOCC5)cc4)c3n2)cc1` [Example 146, [7-(4-Morpholin-4-ylmethyl-phenyl)-7H-pyrrolo[2 3-d]pyrimidin-2-yl]-p-tolyl-amine], the IC50 at GST-JAK2(808-1132) amounted to 30 nM; in assay [1], 2510 nM.
